The numbers were not newly measured in US20040029892A1, “Compositions and dosage forms for application in the oral cavity in the treatment of mykoses” (priority 2003, published 2004), which cites them from elsewhere.

The conditions of the data set: almost insoluble.

Take `CCC(C)n1ncn(-c2ccc(N3CCN(c4ccc(OCC5COC(Cn6cncn6)(c6ccc(Cl)cc6Cl)O5)cc4)CC3)cc2)c1=O` (racemic) [itraconazole, (±)-cis-4-[4-[4-[4-[[2-(2,4-dichlorophenyl)-2(1H-1,2,4-triazol-1-yl-methyl)-1,3-dioxolan-4-yl]methoxy]phenyl]-1piperazinyl]phenyl]-2,4-dihydro-2-(1-methylpropyl)-3H-1,2,4-triazol-3-one]: the solubility in water entry was “less than 1 μg/ml”.
